Results reported in patent US5696276A, “Process for preparing 5,8-dihydroxynaphthoquinone derivatives, novel 5,8-dihydroxynaphthoquinone derivatives and their use as anticancer agent” (Kuhnil Pharmaceutical Co., Ltd., priority 1993, dated 1997).
Values after ≈ are worked out from the molar mass of the structure shown.

Columns and labels:
A549 cancer cells = assay: Cytotoxic activity against A549 cancer cells (sulforhodamin B method); type: cell-based; details: Homo sapiens; A549 cells, SRB method, 48 hours; read-out: ED50, cytotoxic activity against A549
Experimental: The cytotoxic activity against A549 cancer cells was determined using a method for measuring sulforhodamin B (SRB), which was developed in the year 1989 by NIC for measuring anticancer activity of the drug in vitro. For the experiment, cells under subculturing were separated from the attached surface with trypsin-CDTA solution and then dispensed into a 24-well flat-bottom microplate (Falcon) so that the number of cells per well is 8×10^4 (A549). The microplate was incubated in a CO2 incubator for 24 hours to attach the dispensed cells to bottom. The medium was removed with aspirator. Then, 100 μl of the solution of the test compounds diluted in a log-dose of 6 kinds of concentration was added to each well containing cells, in a multiple of 3. The microplate was incubated for further 48 hours. In addition, the diluted solution of the test compounds above was filtered through a 0.22 μm filter, before addition to the cells, to keep the experiment under sterilized condition. The cells were incubated with the test compounds for 48 hours and then the medium was removed from each well. 100 μl of 10% trichloroacetic acid (TCA) was added to each well and then the plate was allowed to stand at 4° C. for one hour to fix the cells to the bottom of plate. After fixing the cells, the plate was washed 5 to 6 times with water to completely remove any remaining TCA solution and then dried at room temperature until water is no longer present. To the completely dried plate was added the dying solution of 0.4% SRB dissolved in 1% acetic acid in an amount of 250 μl per well to stain the cells for 30 minutes and then the plate was washed again 5 to 6 times with 1% acetic acid solution to remove the remaining SRB which is not bound to the cells. The stained cell plate was dried again at room temperature. Then, the dying solution was carefully dissolved in a certain amount of 10 mM Tris so that the O.D. value in the control group at 520 nm is 0.8-1.0 Å (optical density), and the optical density at 520nm was determined. The ED50 value was obtained from the determined optical density. To calculate the activity of the drug against cancer cells, the number of cells (Tz) at the beginning of the addition of drug, the number of cells (C) after incubation with the medium in the absence of drug for 48 hours and the number of cells (T) after incubation in the presence of drugs at each concentration for 48 hours were determined.
The anticancer activity of the test compounds was determined form the following equations. Specifically, in the […] the equation (T-Tz)/(C-Tz)×100 was used and in the case of Tz<T the equation (T-Tz)/Tz×100 was used. Then the IC50 value wich is the concentration of drug which inhibits the growth of cancer cells by 50% was calcualted from the above calculated values using a data regressive function of LOTUS programme and the cytotoxic activities of the test compounds were compared with each other.

S-180 sarcoma cells = assay: Animal experiment using Sarcoma S-180 cells (survival of mouse); type: in vivo, male ICR mouse; details: ip, S-180 ICR mouse, intraperitoneal, 7 to 8 injections; for responders at 10 µmol/kg / responders at 5 µmol/kg: 1200 h, read-out: Number of mouse survived for 50 days (converted); for responders at 10 µmol/kg / response vs control in vivo at 10 µmol/kg: daily dose 10 μmole (mg/kg/day given per compound); for response vs control in vivo at 10 µmol/kg / response vs control in vivo at 5 µmol/kg: read-out: T/C; for responders at 5 µmol/kg / response vs control in vivo at 5 µmol/kg: daily dose 5 μmole (mg/kg/day given per compound)
Experimental: In this experiment, healthy male ICR mouse weighing 20 to 25 g were used as test animal and were fed with water and feed without any restriction in the chamber controlled at the temperature of 23° to 24° C. As the feed, the antibiotic-free feed for mouse was used.
S-180 cells which were incubated for 7 days within abdominal cavity of ICR mouse were separated together with ascites. To the separated cells was added sterilized cold physiological saline and the mixture was centrifuged with 400×g for 2 minutes to separate the cell precipitate. The separated cell precipitate was suspended again in sterilized cold physiological saline and then centrifuged to remove the supernatant. Only S-180 cells were taken, excluding any red bllod cells incorporated therein, washed three times with the same method as above, and then suspended to obtain the cell suspension in concentration of 10^7 cells/ml by counting the number of cells with a haemacytometer. Each 0.1 ml of this cell suspension was transplanted in an abdominal cavity.
After 24 hours from the transplantation, mouse were divided so that each group contains 8 to 9 mouse. The test sample was dissolved in a predetermined amount of dimethylsulfoxide to prepare the stock solution which was stored at 4° C. 30 μl of the stock solution was taken and then mixed with 1.5 ml of physiological saline. 0.1 ml of this mixture was intraperitoneally injected to the test animal. To the control group, 2% dimethylsulfoxide-physiological saline solution was injected. Meanwhile, doxorubicin which is used as the comparative drug was dissolved in 2% dimethylsulfoxide-physiological saline solution and then injected in an amount of 0.5 mg(titer)/kg. The schedule for injection comprises a total of 7 to 8 injections in the manner that after the transplantation of cancer cells 0.1 ml of the test sample per a day is administered for 2 to 4 days followed by the rest for one day. The survival rate was calculated on the basis of the date on which all of one control group is died (approximately 18 to 20 days). The survival rate (T/C, %) was calculated by the following equation as proposed in NIC's protocol: [formula]

K-562 cells = assay: Cytotoxic activity against K-562 cells; type: cell-based; details: Homo sapiens; K562 cells, 48 hours, 37° C.; read-out: ED50, cytotoxic activity against K562
Experimental: As in the test for the cytotoxic activity against L1210 cells, the test samples were dissoved in ethanol or dimethylsulfoxide in a certain concentration. 0.1 ml of the sample solution was mixed with 0.9 ml of a fresh medium to prepare the dilutions. To each two test tubes having a screw cap were added 100, 50, 25 μl, respectively, of the sample dilutions by means of a micropipet. To each test tube for the test group and the control group (2√n: n=number of the samples) was added 5 ml of the dilutions of HL-60 cells and K-562 cells which were cultured and activated before 24 hours from the beginning of experiment and then diluted in a concentration of 1×10^5 cells/mi. All test tubes were cultured for 48 hours in a CO2 incubator at 37° C. and then the number of cells was counted using a haemacytometer.
(§1) The ED50 value is defined as a concentration (μg/ml) of the sample which inhibits the growth of cancer cells by 50% of the control group and determined according to a method described in NIC's mannual (NIC=National Cancer Institue, U.S.A.). The growth rate Y(%) of cells in the presence of the test sample in each concentration was calculated according to the followign equation: […]
(§2) In the above equation, T means the average cell number per ml in the test group after incubation for 48 hours in the presence of the test samples in each concentration, C means the average cell number per ml in the control group after incubation for 48 hours, and Co means the average cell number per ml in the control group at the beginning of incubation. The Y(%) value at each concentration and log10 value of each concentration were obtained and the regression curve was constructed according to the following equation from those obtained values. In this case, when all the Y(%) value obtained at each concentration is greater than 55% or lower than 45%, the experiment was repeatedly conducted.
(§3) To construct the regression curve Y=A+BX the values A and B were obtained using the following equation. [formula]
(§4) In the above, the value N is the number of selected points which is greater than 2 and lower than, or identical with, the number of cencentration of the test sample, Xi is log(concentration) i, and Yi is the growth ratio at (concentration)i. The value of ED50 was obtained for those obtained slope and intercept.

L1210 cells = assay: Cytotoxic activity against L1210 cells; type: cell-based; details: Mus musculus; L1210 cells, 48 hours, 37° C.; read-out: ED50, cytotoxic activity against L1210
Experimental: To obtain L1210 cells in a logarithmic phase for cytotoxic activity test, in a 250 ml Erlenmeyer flask with a screw cap including Fisher medium warmed to 36° to 37° C. L1210 cells were adjusted to a concentration of 2-3×10^5 cells/ml and then cultured, before 24 hours from the beginning of experiment. Then, the culture solution thus obtained was suspended to prepare a L1210 cell suspension having a concentration of about 0.8-1.0×10^6 cells/ml. Test sample was dissoved in ethanol or dimethylsulfoxide in a certain concentration just before the experiment. 0.1 ml of the sample solution was diluted 10 times with 0.9 ml of a fresh medium. To each screw-capped test tube were added 100, 50, 25 μl, respectively, of the sample dilutions and then added 5 ml of the cell suspension (5×10^4 cells/ml) prepared above to use as the test group. To the test tubes for the control group (2√n: n=number of the samples), only 5 ml of the cell suspension was added. All test tubes were cultured for 48 hours in a CO2 incubator at 37° C. and then the number of cells was counted using a haemacytometer.
as §1, §2, §3, §4

| SMILES | IC50 (A549 cancer cells) [µg/mL] | responders at 10 µmol/kg (S-180 sarcoma cells) [%] | response vs control in vivo at 10 µmol/kg (S-180 sarcoma cells) [%] | IC50 (K-562 cells) [µg/mL] | IC50 (L1210 cells) [µg/mL] | responders at 5 µmol/kg (S-180 sarcoma cells) [%] | response vs control in vivo at 5 µmol/kg (S-180 sarcoma cells) [%] |
| --- | --- | --- | --- | --- | --- | --- | --- |
| CCCCCC(=O)OC(CCC(C)C)C1=CC(=O)c2c(O)ccc(O)c2C1=O (stereo not shown) | 0.4 (≈ 1.03 µM) | 0 | 151 | 0.05 (≈ 0.129 µM) | 0.3 (≈ 0.772 µM) | – | – |
| CC(=O)OC(CCC(C)C)C1=CC(=O)c2c(O)ccc(O)c2C1=O (stereo not shown) [2-(1-acetoxy-4-methylpentyl)-5,8-dihydroxy-1,4-naphthoquinone] | 1.5 (≈ 4.51 µM) | – | – | 0.07 (≈ 0.211 µM) | 0.05 (≈ 0.15 µM) | 14.3 | 188 |
| CCCCCCCCCC(OC(C)=O)C1=CC(=O)c2c(O)ccc(O)c2C1=O (stereo not shown) [2-(1-acetoxydecyl)-5,8-dihydroxy-1,4-naphthoquinone] | 0.3 (≈ 0.772 µM) | 14.3 | 197 | 0.1 (≈ 0.257 µM) | 0.4 (≈ 1.03 µM) | – | – |
| CCCCCC(OC(C)=O)C1=CC(=O)c2c(O)ccc(O)c2C1=O (stereo not shown) [2-(1-acetoxyhexyl)-5,8-dihydroxy-1,4-naphthoquinone] | 0.7 (≈ 2.11 µM) | – | – | 0.01 (≈ 0.0301 µM) | 0.08 (≈ 0.241 µM) | 25 | 150 |
| CCCCCCCCCCCCC(OC(C)=O)C1=CC(=O)c2c(O)ccc(O)c2C1=O (stereo not shown) [2-(1-acetoxytridecyl)-5,8-dihydroxy-1,4-naphthoquinone] | 15.8 (≈ 36.7 µM) | 14.3 | 131 | 4.2 (≈ 9.76 µM) | 0.4 (≈ 0.929 µM) | – | – |
| CCOC(CCC(C)C)C1=CC(=O)c2c(O)ccc(O)c2C1=O (stereo not shown) [2-(1-ethoxy-4-methylpentyl)-5,8-dihydroxy-1,4-naphthoquinone] | 1.7 (≈ 5.34 µM) | 0 | 105 | 0.08 (≈ 0.251 µM) | 0.04 (≈ 0.126 µM) | – | – |
| CCCCCC(=O)OC(CCCCC)C1=CC(=O)c2c(O)ccc(O)c2C1=O (stereo not shown) [2-(1-hexanoyloxyhexyl)-5,8-dihydroxy-1,4-naphthoquinone] | 0.3 (≈ 0.772 µM) | 0 | 151 | 0.2 (≈ 0.515 µM) | 0.1 (≈ 0.257 µM) | – | – |
| CC(C)CCC(O)C1=CC(=O)c2c(O)ccc(O)c2C1=O (stereo not shown) [2-(1-hydroxy-4-methylpentyl)-5,8-dihydroxy-1,4-naphthoquinone, reference compound] | 0.9 (≈ 3.1 µM) | – | – | 0.01 (≈ 0.0344 µM) | 0.05 (≈ 0.172 µM) | 0 | 120 |
| COc1ccc(OC)c2c1C(=O)C=C(C(O)CCC(C)C)C2=O (stereo not shown) [2-(1-hydroxy-4-methylpentyl)-5,8-dimethoxy-1,4-naphthoquinone] | 2.2 (≈ 6.91 µM) | 0 | 120 | 0.9 (≈ 2.83 µM) | 0.02 (≈ 0.0628 µM) | – | – |
| CCCCCCCCCCCCC(O)C1=CC(=O)c2c(O)ccc(O)c2C1=O (stereo not shown) [2-(1-hydroxytridecyl)-5,8-dihydroxy-1,4-naphthoquinone] | 4.4 (≈ 11.3 µM) | 0 | 113 | 0.4 (≈ 1.03 µM) | 0.3 (≈ 0.772 µM) | – | – |
| COC(CCC(C)C)C1=CC(=O)c2c(O)ccc(O)c2C1=O (stereo not shown) [2-(1-methoxy-4-methylpentyl)-5,8-dihydroxy-1,4-naphthoquinone] | 1.5 (≈ 4.93 µM) | 0 | 126 | 0.07 (≈ 0.23 µM) | 0.05 (≈ 0.164 µM) | – | – |
| CCCCCOC(CCC(C)C)C1=CC(=O)c2c(O)ccc(O)c2C1=O (stereo not shown) [2-(1-pentyloxy-4-methylpentyl)-5,8-dihydroxy-1,4-naphthoquinone] | 1.3 (≈ 3.61 µM) | – | – | 0.2 (≈ 0.555 µM) | 0.3 (≈ 0.832 µM) | – | – |
| CCCCCOC(CCC(C)C)C1=CC(=O)c2c(OC)ccc(OC)c2C1=O (stereo not shown) [2-(1-pentyloxy-4-methylpentyl)-5,8-dimethoxy-1,4-naphthoquinone] | 7.8 (≈ 20.1 µM) | – | – | 3 (≈ 7.72 µM) | 2.6 (≈ 6.69 µM) | – | – |
| COc1ccc(OC)c2c1C(=O)C=C(C(CCC(C)C)OCCC(C)C)C2=O (stereo not shown) [2-[1-(3-methylbutoxy)-4-methylpentyl]-5,8-dimethoxy-1,4-naphthoquinone] | 3.3 (≈ 8.49 µM) | – | – | 2.3 (≈ 5.92 µM) | 2.5 (≈ 6.43 µM) | – | – |
